Source: patent US10253002B2, “Compounds and methods of treating infections” (Neoculi Pty Ltd., priority 2013, dated 2019)

How the values were obtained:
Test in all cases: Broth microdilution MIC, Example 7 (NCL812 and analogues)
MRSA = format: cell-based, Staphylococcus aureus; details: for activity against MRSA among analogues: MIC testing, two MRSA strains
Protocol: (§1) Minimum inhibitory concentrations (μg/ml) were determined using the broth microdilution method recommended by the Clinical and Laboratory Standards Institute (CLSI). MIC breakpoints were determined by visual assessment and then confirmed using an ELISA plate reader, measuring absorbance levels at 600 nm. Bacterial growth (turbidity) in the wells with antimicrobial was compared with the amount of growth (turbidity) in the growth-control well (containing no antimicrobial). All isolates were tested in duplicate, if there was a difference of greater than one two-fold dilution in the results, the test was repeated a third time. The purity of the isolates was closely monitored during testing by subculturing the prepared bacterial inoculum onto SBA (sheep blood agar). […] The MIC50, MIC20 and MIC range (minimum and maximum) were calculated for each of the bacterial groups.
(§2) MICs were determined against two MRSA strains, two VRE strains and one strain each of E. coli and Pseudomonas aeruginosa.

VRE = format: cell-based, Enterococcus spp.; details: for activity against VRE among analogues: MIC testing, two VRE strains
Protocol: as §1, §2

Pseudomonas aeruginosa = format: cell-based; details: 24 hours
Escherichia coli = format: cell-based; details: 24 hours
[1] = MRSA 1, 24 hours, duplicate lines per compound
[2] = MRSA 2, 24 hours, duplicate lines per compound
[3] = VRE 1, 24 hours, duplicate lines per compound
[4] = VRE 2, 24 hours, duplicate lines per compound
[5] = P. aeruginosa, duplicate lines per compound
[6] = E. coli, duplicate lines per compound
[7] = isolate MRSA 1, 24 hours, 1st and 2nd replicate rows
[8] = isolate MRSA 2, 24 hours, 1st and 2nd replicate rows
[9] = isolate VRE 1, 24 hours, 1st and 2nd replicate rows
[10] = isolate VRE 2, 24 hours, 1st and 2nd replicate rows

Cl.N#Cc1cccc(C=NNC(=N)NN=Cc2ccc(Cl)cc2)c1 [NCL086]
>128 µg/mL: MIC (μg/ml) at 24 hours, MRSA 1 (MRSA; [1]) | MIC (μg/ml) at 24 hours, MRSA 2 (MRSA; [2]) | MIC (μg/ml) at 24 hours, VRE 1 (VRE; [3]) | MIC (μg/ml) at 24 hours, P. aeruginosa (Pseudomonas aeruginosa; [5]) | MIC (μg/ml) at 24 hours, E. coli (Escherichia coli; [6])
128 µg/mL: MIC (μg/ml) at 24 hours, VRE 2 (VRE; [4])

Cl.N=C(NC(=O)c1ccccc1)N(N=Cc1ccccc1Cl)C(=O)c1ccccc1 [NCL090]
>128 µg/mL: MIC (μg/ml) at 24 hours, MRSA 1 (MRSA; [1]) | MIC (μg/ml) at 24 hours, MRSA 2 (MRSA; [2]) | MIC (μg/ml) at 24 hours, VRE 1 (VRE; [3]) | MIC (μg/ml) at 24 hours, VRE 2 (VRE; [4]) | MIC (μg/ml) at 24 hours, P. aeruginosa (Pseudomonas aeruginosa; [5]) | MIC (μg/ml) at 24 hours, E. coli (Escherichia coli; [6])

N#Cc1ccccc1/C=N/NC(N)=O [NCL050]
>128 µg/mL: MIC (μg/ml) at 24 hours, MRSA 1 (MRSA; [7]) | MIC (μg/ml) at 24 hours, MRSA 2 (MRSA; [8]) | MIC (μg/ml) at 24 hours, VRE 1 (VRE; [9]) | MIC (μg/ml) at 24 hours, VRE 2 (VRE; [10]) | MIC (μg/ml) at 24 hours, P. aeruginosa (Pseudomonas aeruginosa; 1st and 2nd replicate rows) | MIC (μg/ml) at 24 hours, E. coli (Escherichia coli; 1st and 2nd replicate rows)

Cl.N#Cc1ccccc1C=NNC(=N)NN=Cc1ccc(Cl)cc1 [NCL085]
>128 µg/mL: MIC (μg/ml) at 24 hours, MRSA 1 (MRSA; [1]) | MIC (μg/ml) at 24 hours, MRSA 2 (MRSA; [2]) | MIC (μg/ml) at 24 hours, VRE 1 (VRE; [3]) | MIC (μg/ml) at 24 hours, VRE 2 (VRE; [4]) | MIC (μg/ml) at 24 hours, P. aeruginosa (Pseudomonas aeruginosa; [5]) | MIC (μg/ml) at 24 hours, E. coli (Escherichia coli; [6])

N#Cc1ccccc1/C=N/NC(=O)N/N=C/c1ccccc1C#N [NCL008]
>128 µg/mL: MIC (μg/ml) at 24 hours, MRSA 1 (MRSA; [7]) | MIC (μg/ml) at 24 hours, MRSA 2 (MRSA; [8]) | MIC (μg/ml) at 24 hours, VRE 1 (VRE; [9]) | MIC (μg/ml) at 24 hours, VRE 2 (VRE; [10]) | MIC (μg/ml) at 24 hours, P. aeruginosa (Pseudomonas aeruginosa; 1st and 2nd replicate rows) | MIC (μg/ml) at 24 hours, E. coli (Escherichia coli; 1st and 2nd replicate rows)

COc1ccc(/C=N/NC(N)=O)cc1 [NCL058]
>128 µg/mL: MIC (μg/ml) at 24 hours, MRSA 1 (MRSA; [7]) | MIC (μg/ml) at 24 hours, MRSA 2 (MRSA; [8]) | MIC (μg/ml) at 24 hours, VRE 1 (VRE; [9]) | MIC (μg/ml) at 24 hours, VRE 2 (VRE; [10]) | MIC (μg/ml) at 24 hours, P. aeruginosa (Pseudomonas aeruginosa; 1st and 2nd replicate rows) | MIC (μg/ml) at 24 hours, E. coli (Escherichia coli; 1st and 2nd replicate rows)

N#Cc1ccccc1C=NNC(=S)NN=Cc1ccccc1C#N [NCL064]
>128 µg/mL: MIC (μg/ml) at 24 hours, MRSA 1 (MRSA; [7]) | MIC (μg/ml) at 24 hours, MRSA 2 (MRSA; [8]) | MIC (μg/ml) at 24 hours, VRE 1 (VRE; [9]) | MIC (μg/ml) at 24 hours, VRE 2 (VRE; [10]) | MIC (μg/ml) at 24 hours, P. aeruginosa (Pseudomonas aeruginosa; 1st and 2nd replicate rows) | MIC (μg/ml) at 24 hours, E. coli (Escherichia coli; 1st and 2nd replicate rows)

CC(=NNC(=N)NN)c1ccc(Cl)cc1.Cl [NCL069]
>128 µg/mL: MIC (μg/ml) at 24 hours, P. aeruginosa (Pseudomonas aeruginosa; 1st and 2nd replicate rows) | MIC (μg/ml) at 24 hours, E. coli (Escherichia coli; 1st and 2nd replicate rows)
128 µg/mL: MIC (μg/ml) at 24 hours, MRSA 1 (MRSA; [7]) | MIC (μg/ml) at 24 hours, MRSA 2 (MRSA; [8]) | MIC (μg/ml) at 24 hours, VRE 1 (VRE; [9])
64 µg/mL: MIC (μg/ml) at 24 hours, VRE 2 (VRE; [10])
greatest activity: activity against MRSA among analogues (MRSA) | activity against VRE among analogues (VRE)

CN(C)c1ccc(C=NNC(=N)NN=Cc2ccc(N(C)C)cc2O)c(O)c1 [NCL171]
64 µg/mL: MIC (μg/ml) at 24 hours, MRSA 2 (MRSA; MRSA 2, 24 hours)
32 µg/mL: MIC (μg/ml) at 24 hours, VRE 1 (VRE; VRE 1, 24 hours)
>128 µg/mL: MIC (μg/ml) at 24 hours, VRE 2 (VRE; VRE 2, 24 hours) | MIC (μg/ml) at 24 hours, P. aeruginosa (Pseudomonas aeruginosa; P. aeruginosa) | MIC (μg/ml) at 24 hours, E. coli (Escherichia coli; E. coli)
128 µg/mL: MIC (μg/ml) at 24 hours, MRSA 1 (MRSA; MRSA 1, 24 hours)
greatest activity: activity against MRSA among analogues (MRSA) | activity against VRE among analogues (VRE)

N#Cc1cccc(/C=N/NC(=S)N/N=C/c2cccc(C#N)c2)c1 [NCL065]
>128 µg/mL: MIC (μg/ml) at 24 hours, MRSA 1 (MRSA; [7]) | MIC (μg/ml) at 24 hours, MRSA 2 (MRSA; [8]) | MIC (μg/ml) at 24 hours, VRE 1 (VRE; [9]) | MIC (μg/ml) at 24 hours, VRE 2 (VRE; [10]) | MIC (μg/ml) at 24 hours, P. aeruginosa (Pseudomonas aeruginosa; 1st and 2nd replicate rows) | MIC (μg/ml) at 24 hours, E. coli (Escherichia coli; 1st and 2nd replicate rows)

Cl.N#Cc1ccccc1C=NNC(=N)NN=Cc1ccccc1C#N [NCL025]
>128 µg/mL: MIC (μg/ml) at 24 hours, MRSA 1 (MRSA; [7]) | MIC (μg/ml) at 24 hours, MRSA 2 (MRSA; [8]) | MIC (μg/ml) at 24 hours, VRE 1 (VRE; [9]) | MIC (μg/ml) at 24 hours, VRE 2 (VRE; [10]) | MIC (μg/ml) at 24 hours, P. aeruginosa (Pseudomonas aeruginosa; 1st and 2nd replicate rows) | MIC (μg/ml) at 24 hours, E. coli (Escherichia coli; 1st and 2nd replicate rows)

Cl.N=C(NN=Cc1ccc(Cl)o1)NN=Cc1ccc(Cl)o1 [NCL 145]
>128 µg/mL: MIC (μg/ml) at 24 hours, MRSA 1 (MRSA; [1]) | MIC (μg/ml) at 24 hours, MRSA 2 (MRSA; [2]) | MIC (μg/ml) at 24 hours, VRE 1 (VRE; [3]) | MIC (μg/ml) at 24 hours, VRE 2 (VRE; [4]) | MIC (μg/ml) at 24 hours, P. aeruginosa (Pseudomonas aeruginosa; [5]) | MIC (μg/ml) at 24 hours, E. coli (Escherichia coli; [6])
